Values quoted from earlier work, collected in patent US20060063794A1, “Method of attenuating graft rejection” (Fujisawa Pharmaceutical Co., Ltd., priority 2004, published 2006).

Legend:
[1] = MMF 2 g/day in addition to Tacrolimus and corticosteroid; cited from earlier work
rat cardiac allografts = conditions: rats, 20 mg/kg for ten days; cited from earlier work

## COc1c(C)c2c(c(O)c1C/C=C(\C)CCC(=O)OCCN1CCOCC1)C(=O)OC2 [MMF]
[1]
  AR rate: 7.1%

## N#Cc1ccc(NC(=O)C(C#N)C(=O)C2CC2)cc1 (centres unmarked) [MNA 279, reference compound]
Rat cardiac allografts
  Prolongation of graft survival: about two
